Legend:
[1] = test system: SW620; test: MTS assay, cytotoxicity on colorectal cancer cell line SW620; assay type: cell-based; settings: Homo sapiens, SW-620, RON Δ155, KRAS G12V, 72 hours
Protocol: MTS assay was performed to compare cytotoxicity of the compounds of Example 1, Example 2, Example 3, Example 4, Example 5, Example 6, and positive control 1 on a colorectal cancer cell line, and a cell death rate of the colorectal cancer cell line was analyzed to compare anticancer activity of the compounds.
The MTS assay was performed by seeding each colorectal cell line in a 96-well plate at 1,000 cells per well, and after 24 hours, performing treatment with the compounds of Examples 1 to 6 and positive control 1 at various concentrations (0.000001 μM to 10 μM) in 100 μL of 10% FBS-RPMI medium (WELGENE Inc.) per well. The cells were incubated for 72 hours. Then, 20 μL of MTS solution (Promega) was added thereto, and the cells were incubated for 2 hours. Then, the absorbance was measured at 490 nm. The IC50 values for the compounds of Examples 1 to 6 and positive control 1 were calculated using GraphPad Prism™ 5 to investigate cytotoxicity.

[2] = test system: SW620 (KRAS G12V/mRON Δ155); test: Cell line SW620-transplanted mouse model; assay type: in vivo, BALB/c nude mice
Protocol: 5-Week-old female BALB/c nude mice were purchased and acclimatized for 1 week. Then, human colorectal cancer patient-derived cell line SW620 (KRAS
G12V/mRON Δ155) at 5×10^6 cells/mouse was injected subcutaneously (100 μL) into the right dorsal side of the mice. The compound of Example 1 was orally administered when the tumor reached a size of about 100 mm^3. The drug was administered once a day for 4 weeks, and tumor size and mouse body weight were measured twice a week. After completion of the drug administration, the experimental animals were euthanized, and then the tumors were extracted and weighed for comparative analysis.
A portion of the extracted tumor tissue was fixed in 10% formalin and processed into a paraffin block. Then, the block was made into sections. Staining of the slide was performed through immunochemical staining. Another portion of the extracted tumor tissue was subjected to lysis, and then Western blotting was used to identify changes in expression of respective proteins.

[3] = test system: SW620 (KRAS G12V/mRON Δ155); test: Mechanism of action in SW620 overexpressing β-catenin (trypan blue exclusion, Western blotting); assay type: cell-based, human
Protocol: Each of an empty vector and human beta-catenin pcDNA3.1 (Plasmid #16828, Addgene) that is a vector into which β-catenin DNA (X87838.1, GENE ID: 1499) is introduced, was transfected into the human colorectal cancer patient-derived cell line SW620 (KRAS G12V/mRON […]), and then treatment with the compound of Example 1 was performed. Subsequently, all cells were collected when 48 hours had elapsed. Cell death induction efficacy was compared and analyzed using a trypan blue exclusion assay. As described above, the cell line SW620 was caused to overexpress β-catenin. Then, treatment with the compound of Example 1 was performed, and cell death induction efficacy was observed. In addition, as described above, the cell line SW 620 was caused to overexpress β-catenin. Then, the sample treated with the compound of Example 1 was used to identify expressions of β-catenin, p-ERK, ERK, c-myc, cyclin D1, pTyr-mRON, mRON, and cleaved caspase 3 with Western blotting.

[4] = immunochemical staining, FIG. 7

CCOc1ccn(-c2ccc(F)cc2)c(=O)c1C(=O)Nc1ccc(Oc2ccnc3cc(-c4ccc(CN5CCOCC5)cn4)sc23)c(F)c1.Cl [Example 1, 4-ethoxy-N-[3-fluoro-4-({2-[5-(morpholinomethyl)pyridine-2-yl]thieno[3,2-b]pyridine-7-yl}oxy)phenyl]-1-(4-fluorophenyl)-2-oxo-1,2-dihydropyridine-3-carboxamide hydrochloride]
IC50 [1]: 320 nM | Tumor growth inhibition (TGI, %) ([2]; 30 mg/kg, oral, once a day for 4 weeks): 79.2 ± 2.2% | expression of cleaved caspase 3 in tumor tissue [2, 4]: induced expression | expression of cyclin D1 (PD marker) in tumor tissue [2, 4]: decreased expression | expression of pTyr-RON in tumor tissue [2, 4]: decreased expression | tumor growth inhibitory efficacy ([2]; oral, 4 weeks, Table 5, FIG. 5, FIG. 6): high tumor growth inhibitory efficacy | expression of pTyr-mRON ([3]; SW620, empty vector or β-catenin overexpressed, Western blotting, FIG. 11): decreased by the compound of Example 1 regardless of β-catenin | cell death induction efficacy ([3]; SW620 overexpressing β-catenin, 48 hours, trypan blue exclusion, FIG. 10): cell death induction efficacy of the compound was decreased | expression of p-ERK, c-myc, and cyclin D1 ([3]; SW620 transfected with the empty vector, Western blotting, FIG. 11): decreased | expression of p-ERK, c-myc, and cyclin D1 ([3]; SW620 with β-catenin overexpressed, Western blotting, FIG. 11): increased again

— patent US20230099204A1, “PHARMACEUTICAL COMPOSITION FOR PREVENTION OR TREATMENT OF CANCER IN WHICH KRAS MUTATION AND ACTIVATED RON ARE PRESENT” (WELLMARKER BIO CO., LTD., priority 2020, published 2023)
